Test results as given in PubChem BioAssay AID328 (DTP/NCI, 2004).
Several values for one entry are separate records, joined by “and”; a condition that tells them apart may be missing. Equal values may be shown once. Inconclusive results and toxic doses are left out.

Tested on: BDF1 mice, P388 leukemia ip, median survival T/C
Experiment: NCI In Vivo Anticancer Drug Screen. Data for tumor model P388 Leukemia (intraperitoneal) in B6D2F1 (BDF1) mice
Conditions: endpoint: median survival time, higher = longer survival
Protocol: The antitumor activity of compounds was measured in mice bearing transplantable tumors. Survival or tumor size were measured and the results are expressed as the measurement made in the treated group (T) divided by the measurement made in the vehicle treated control group (C). The tumor model used in this assay is P388 Leukemia (intraperitoneal) in B6D2F1 (BDF1) mice

[1] = dose: 100.0 mg/kg/injection, schedule: Q04DX003 (ip), vehicle: saline
[2] = dose: 200.0 mg/kg/injection, schedule: Q04DX003 (ip), vehicle: saline with Tween-80
[3] = dose: 12.5 mg/kg/injection, schedule: Q01DX009 (ip), vehicle: saline
[4] = dose: 25.0 mg/kg/injection, schedule: Q01DX009 (ip), vehicle: saline
[5] = dose: 100.0 mg/kg/injection, schedule: Q04DX003 (ip), vehicle: saline with Tween-80
[6] = dose: 200.0 mg/kg/injection, schedule: Q04DX003 (ip), vehicle: saline
[7] = dose: 400.0 mg/kg/injection, schedule: Q04DX003 (ip), vehicle: saline
[8] = dose: 50.0 mg/kg/injection, schedule: Q01DX009 (ip), vehicle: saline with Tween-80
[9] = dose: 100.0 mg/kg/injection, schedule: Q01DX009 (ip), vehicle: saline with Tween-80
[10] = dose: 200.0 mg/kg/injection, schedule: Q01DX009 (ip), vehicle: saline with Tween-80

Compound: CCCC1CC[N-]CC1.CCCC1CC[N-]CC1.[Cl][Pt+2][Cl]
- T/C (dose: 25.0 mg/kg/injection, schedule: Q01DX009 (ip), vehicle: saline with Tween-80): 122 % of control
- T/C (dose: 44.0 mg/kg/injection, schedule: Q04DX003 (ip), vehicle: saline): 96 % of control
- T/C (dose: 50.0 mg/kg/injection, schedule: Q01DX009 (ip), vehicle: Klucel (hydroxypropylcellulose) (HPC)): 118 % of control
- T/C (dose: 66.0 mg/kg/injection, schedule: Q04DX003 (ip), vehicle: saline): 116 % of control
- T/C [1]: 112 % of control
- T/C (dose: 132.0 mg/kg/injection, schedule: Q04DX003 (ip), vehicle: saline with Tween-80): 100 % of control
- T/C [2]: 95 % of control
- T/C (dose: 300.0 mg/kg/injection, schedule: Q04DX003 (ip), vehicle: Klucel (hydroxypropylcellulose) (HPC)): 100 % of control

Compound: CNC(CNC(CO)CC(C)C)Cc1ccc(OCc2ccccc2)cc1 (configuration not stated)
- T/C [3]: 104 % of control
- T/C [4]: 100 % of control

Compound: CCCCCCCCCC[N+](C)(C)CC(O)C[N+](C)(C)CCCCCCCCCC
- T/C (dose: 1.56 mg/kg/injection, schedule: Q01DX009 (ip), vehicle: saline): 91 % of control and 109 % of control
- T/C (dose: 3.12 mg/kg/injection, schedule: Q01DX009 (ip), vehicle: saline): 104 % of control
- T/C (dose: 3.13 mg/kg/injection, schedule: Q01DX009 (ip), vehicle: saline): 100 % of control and 108 % of control
- T/C (dose: 6.25 mg/kg/injection, schedule: Q01DX009 (ip), vehicle: saline): 100 % of control and 109 % of control and 120 % of control
- T/C [3]: 107 % of control and 109 % of control and 111 % of control

Compound: C1CCc2nnnn2CC1
- T/C (dose: 2.34 mg/kg/injection, schedule: Q04DX003 (ip), vehicle: saline): 91 % of control
- T/C (dose: 4.68 mg/kg/injection, schedule: Q04DX003 (ip), vehicle: saline): 91 % of control
- T/C (dose: 9.37 mg/kg/injection, schedule: Q04DX003 (ip), vehicle: saline): 91 % of control
- T/C [3]: 118 % of control
- T/C (dose: 18.75 mg/kg/injection, schedule: Q04DX003 (ip), vehicle: saline): 100 % of control
- T/C [4]: 118 % of control

Compound: O=C(Nc1ccc(C(=O)O)cc1)Oc1ccc(N(CCCl)CCCl)cc1
- T/C (dose: 12.0 mg/kg/injection, schedule: Q04DX003 (ip), vehicle: saline): 163 % of control
- T/C (dose: 19.0 mg/kg/injection, schedule: Q04DX003 (ip), vehicle: saline): 154 % of control
- T/C (dose: 29.0 mg/kg/injection, schedule: Q04DX003 (ip), vehicle: saline with Tween-80): 200 % of control
- T/C (dose: 45.0 mg/kg/injection, schedule: Q04DX003 (ip), vehicle: saline with Tween-80): 235 % of control
- T/C (dose: 66.0 mg/kg/injection, schedule: Q04DX003 (ip), vehicle: saline with Tween-80): 163 % of control
- T/C [5]: 245 % of control
- T/C (dose: 150.0 mg/kg/injection, schedule: Q04DX003 (ip), vehicle: saline with Tween-80): 190 % of control

Compound: CNC1=C(N2CC2)C(=O)C(NC)=C(N2CC2)C1=O
- T/C (dose: 0.05 mg/kg/injection, schedule: Q01DX009 (ip), vehicle: saline): 159 % of control
- T/C (dose: 0.1 mg/kg/injection, schedule: Q01DX009 (ip), vehicle: saline): 151 % of control and 169 % of control
- T/C (dose: 0.2 mg/kg/injection, schedule: Q01DX009 (ip), vehicle: saline): 195 % of control

Compound: C=C(C)C12OC3(c4ccccc4)OC1C1C4OC4(CO)C(O)C4(O)C(=O)C(C)=CC4C1(O3)C(C)C2OC(=O)c1ccccc1 (configuration not stated)
- T/C (dose: 6.3 micrograms/kg/injection, schedule: Q01DX009 (ip), vehicle: saline + alcohol): 106 % of control
- T/C (dose: 12.5 micrograms/kg/injection, schedule: Q01DX009 (ip), vehicle: saline + alcohol): 108 % of control
- T/C (dose: 200.0 micrograms/kg/injection, schedule: Q01DX009 (ip), vehicle: saline + alcohol): 150 % of control

Compound: CC1=CCCC1
- T/C (dose: 100.0 mg/kg/injection, schedule: Q01DX009 (ip), vehicle: saline): 118 % of control
- T/C [1]: 113 % of control
- T/C (dose: 200.0 mg/kg/injection, schedule: Q01DX009 (ip), vehicle: saline): 118 % of control
- T/C [6]: 104 % of control
- T/C (dose: 400.0 mg/kg/injection, schedule: Q01DX009 (ip), vehicle: saline): 118 % of control
- T/C [7]: 104 % of control

Compound: CC1(C)CC2C(=O)c3ccccc3NC2c2ccccc21 (configuration not stated)
- T/C (dose: 100.0 mg/kg/injection, schedule: Q01DX009 (ip), vehicle: Klucel (hydroxypropylcellulose) (HPC)): 87 % of control
- T/C (dose: 100.0 mg/kg/injection, schedule: Q04DX003 (ip), vehicle: Klucel (hydroxypropylcellulose) (HPC)): 112 % of control
- T/C (dose: 200.0 mg/kg/injection, schedule: Q01DX009 (ip), vehicle: Klucel (hydroxypropylcellulose) (HPC)): 108 % of control
- T/C (dose: 200.0 mg/kg/injection, schedule: Q04DX003 (ip), vehicle: Klucel (hydroxypropylcellulose) (HPC)): 104 % of control
- T/C (dose: 400.0 mg/kg/injection, schedule: Q04DX003 (ip), vehicle: Klucel (hydroxypropylcellulose) (HPC)): 108 % of control

Compound: O=C1C=C(C2CCCCC2)C(=O)C2CCCCC12 (configuration not stated)
- T/C [1]: 110 % of control
- T/C [6]: 105 % of control
- T/C [7]: 120 % of control

Compound: COC(OC)c1ccccc1
- T/C [8]: 99 % of control
- T/C [9]: 115 % of control
- T/C [10]: 108 % of control

Compound: COc1ccc(CC2c3cc(OC)c(OC)cc3CCN2C)cc1OC (configuration not stated)
- T/C (dose: 50.0 mg/kg/injection, schedule: Q01DX005 (ip), vehicle: saline with Tween-80): 90 % of control

Compound: CCCCCCCCCCCCCCCCCCNC(=O)Nc1ccc(C)cc1C
- T/C (dose: 100.0 mg/kg/injection, schedule: Q04DX003 (ip), vehicle: saline + alcohol): 91 % of control
- T/C (dose: 200.0 mg/kg/injection, schedule: Q04DX003 (ip), vehicle: saline + alcohol): 108 % of control
- T/C (dose: 400.0 mg/kg/injection, schedule: Q04DX003 (ip), vehicle: saline + alcohol): 108 % of control

Compound: Cc1ccc2c(c1)N=Cc1ccccc1O2
- T/C (dose: 50.0 mg/kg/injection, schedule: Q01DX009 (ip), vehicle: saline + alcohol): 104 % of control
- T/C (dose: 100.0 mg/kg/injection, schedule: Q01DX009 (ip), vehicle: saline + alcohol): 110 % of control
- T/C (dose: 200.0 mg/kg/injection, schedule: Q01DX009 (ip), vehicle: saline + alcohol): 106 % of control

Compound: COC(C/C=C\C=C\CC/C=C/CC(C)/C=C/C(=C\C(=O)O)CC(=O)O)/C(C)=C\C=C(/C)C(=O)O (configuration not stated)
- T/C (dose: 1.0 mg/kg/injection, schedule: Q04DX003 (ip), vehicle: saline): 100 % of control
- T/C (dose: 2.0 mg/kg/injection, schedule: Q04DX003 (ip), vehicle: saline): 88 % of control
- T/C (dose: 4.0 mg/kg/injection, schedule: Q01DX009 (ip), vehicle: saline): 87 % of control
- T/C (dose: 4.0 mg/kg/injection, schedule: Q04DX003 (ip), vehicle: saline): 94 % of control
- T/C (dose: 6.0 mg/kg/injection, schedule: Q04DX003 (ip), vehicle: saline): 100 % of control
- T/C (dose: 8.0 mg/kg/injection, schedule: Q01DX009 (ip), vehicle: saline): 87 % of control
- T/C (dose: 8.0 mg/kg/injection, schedule: Q04DX003 (ip), vehicle: saline): 108 % of control
- T/C (dose: 16.0 mg/kg/injection, schedule: Q01DX009 (ip), vehicle: saline): 100 % of control
- T/C (dose: 16.0 mg/kg/injection, schedule: Q04DX003 (ip), vehicle: saline): 95 % of control

Compound: Cc1n[nH]c(C)c1Br
- T/C (dose: 75.0 mg/kg/injection, schedule: Q01DX009 (ip), vehicle: saline with Tween-80): 95 % of control
- T/C (dose: 150.0 mg/kg/injection, schedule: Q01DX009 (ip), vehicle: saline with Tween-80): 98 % of control
- T/C (dose: 300.0 mg/kg/injection, schedule: Q01DX009 (ip), vehicle: saline with Tween-80): 95 % of control

Compound: CC(C)[CH2][Sn]([CH2]C(C)C)([CH2]C(C)C)[C](C)(C)C
- T/C [1]: 103 % of control
- T/C [6]: 112 % of control
- T/C [7]: 112 % of control

Compound: Nc1nc2c(ncn2C2OC(CO)C(O)C2O)c(=O)[nH]1 (configuration not stated)
- T/C [5]: 157 % of control

Compound: CCS(=O)(=O)c1cccc2nncn12
- T/C (dose: 100.0 mg/kg/injection, schedule: Q01DX001 (ip), vehicle: saline with Tween-80): 108 % of control
- T/C (dose: 200.0 mg/kg/injection, schedule: Q01DX001 (ip), vehicle: saline with Tween-80): 106 % of control
- T/C (dose: 400.0 mg/kg/injection, schedule: Q01DX001 (ip), vehicle: saline with Tween-80): 100 % of control

Compound: Cc1ccc(Nc2ccc(Nc3ccc(C)cc3)c3c2C(=O)c2ccccc2C3=O)cc1
- T/C [8]: 90 % of control
- T/C [9]: 86 % of control
- T/C [5]: 88 % of control
- T/C [10]: 90 % of control
- T/C [2]: 100 % of control
